From US20110172147A1, “NEUROPEPTIDE-2 RECEPTOR (Y-2R) AGONISTS” (priority 2009, published 2011) come the findings set out here.

What all share (assay type): cell-based
One experiment deals with T1, Y5R (Homo sapiens, UniProt Q15761).
T1 sequence (Q15761 1-445): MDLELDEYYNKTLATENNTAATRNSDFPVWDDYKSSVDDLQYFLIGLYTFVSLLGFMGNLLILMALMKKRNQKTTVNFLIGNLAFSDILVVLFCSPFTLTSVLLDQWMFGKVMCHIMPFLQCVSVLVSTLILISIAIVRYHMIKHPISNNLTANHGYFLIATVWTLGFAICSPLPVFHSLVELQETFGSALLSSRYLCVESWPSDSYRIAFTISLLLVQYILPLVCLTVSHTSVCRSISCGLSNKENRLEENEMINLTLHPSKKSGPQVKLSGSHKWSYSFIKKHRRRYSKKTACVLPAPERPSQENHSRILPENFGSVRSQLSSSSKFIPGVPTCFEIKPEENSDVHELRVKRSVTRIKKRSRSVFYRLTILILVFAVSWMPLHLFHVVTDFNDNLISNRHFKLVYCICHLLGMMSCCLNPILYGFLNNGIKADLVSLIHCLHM
Nature of the experiment: CaFlux Assay (FLIPR), Y5R.

In the next experiment the target is T2, Y1R (Homo sapiens, UniProt P25929).
T2 sequence (P25929 1-384): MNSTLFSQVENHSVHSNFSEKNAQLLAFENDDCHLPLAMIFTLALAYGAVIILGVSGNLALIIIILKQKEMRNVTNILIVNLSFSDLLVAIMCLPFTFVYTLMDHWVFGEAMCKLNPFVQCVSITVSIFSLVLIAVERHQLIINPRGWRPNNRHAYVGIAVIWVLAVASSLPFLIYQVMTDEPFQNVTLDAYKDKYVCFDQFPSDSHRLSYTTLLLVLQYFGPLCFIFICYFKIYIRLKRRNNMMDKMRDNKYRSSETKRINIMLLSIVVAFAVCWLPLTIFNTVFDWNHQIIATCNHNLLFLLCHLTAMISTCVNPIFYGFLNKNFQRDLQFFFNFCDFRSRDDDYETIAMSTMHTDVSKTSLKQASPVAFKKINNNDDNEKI
The experiment can be described thus: CaFlux Assay (FLIPR), Y1R.

The next experiment has as its target Y4R (Homo sapiens, UniProt P50391). Nature of the experiment: CaFlux Assay (FLIPR), Y4R.
In experiment [1] the target is T3, hNPY2R (Homo sapiens, UniProt P49146).
T3 sequence (P49146 1-381): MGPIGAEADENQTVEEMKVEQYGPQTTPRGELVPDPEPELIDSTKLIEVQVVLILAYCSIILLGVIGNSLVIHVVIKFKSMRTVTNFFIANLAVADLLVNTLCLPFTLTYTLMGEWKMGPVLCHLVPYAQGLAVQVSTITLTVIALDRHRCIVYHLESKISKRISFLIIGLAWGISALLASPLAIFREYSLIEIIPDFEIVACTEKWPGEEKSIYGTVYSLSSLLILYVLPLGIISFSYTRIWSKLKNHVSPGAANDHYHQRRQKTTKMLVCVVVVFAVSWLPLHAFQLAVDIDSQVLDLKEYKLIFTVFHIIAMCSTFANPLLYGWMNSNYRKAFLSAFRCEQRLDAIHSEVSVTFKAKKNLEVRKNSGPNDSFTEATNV
The experiment can be described thus: CaFlux Assay (FLIPR), Y2R. Details: expressed in transfected cells; host or cells: HEK-293 stably transfected with G protein chimera Gαqi9. As to the method:
HEK-293 cells were stably transfected with the G protein chimera Gαqi9 and the hygromycin-B resistance gene were further transfected with the human NPY2 receptor and G418 antibiotic selection. Following selection in both hygromycin-B and G418, individual clones were assayed for their response to PYY. The transfected cells were cultured in DMEM medium supplemented with 10% fetal bovine serum, 50 μg/mL hygromycin-B, 2 mM glutamine, 100 U/mL penicillin, 100 μg/mL streptomycin and 250 μg/mL G418. Cells are harvested with trypsin-EDTA and counted using ViaCount reagent. The cell suspension volume is adjusted to 4.8×10^5 cells/mL with complete growth media. Aliquots of 25 μL are dispensed into 384 well Poly-D Lysine coated black/clear microplates (Falcon) and the microplates were placed in a 37° C. CO2 incubator overnight. Loading Buffer (Calcium-3 Assay Kit, Molecular Devices) was prepared by dissolving the contents of one vial (Express Kit) into […] Hank's Balanced Salt Solution containing 20 mM HEPES and 5 mM probenecid. Aliquots of 25 μL of diluted dye were dispensed into the cell plates and the plates are then incubated for 1 hour at 37° C. During the incubation, test compounds were prepared at 3.5× the desired concentration in HBSS (20 mM HEPES)/0.05% BSA/1% DMSO and transferred to a 384-well plate for use on FLIPR. After incubation, both the cell and compound plates were brought to the FLIPR and 20 μL of the diluted compounds were transferred to the cell plates by the FLIPR. During the assay, fluorescence readings were taken simultaneously from all 384 wells of the cell plate every 1.5 seconds. Five readings were taken to establish a stable baseline, and then 20 μL of sample was rapidly (30 μL/sec) and simultaneously added to each well of the cell plate. The fluorescence was continuously monitored before, during and after sample addition for a total elapsed time of 100 seconds. Responses (increase in peak fluorescence) in each well following addition were determined. The initial fluorescence reading from each well, prior to ligand stimulation, was used as a zero baseline value for the data from that well. The responses are expressed as % of maximal response of the positive control.

Experiment [2] addresses T3, hNPY2R. The experiment can be described thus: cAMP Agonist Assay, HEK293/hNPY2R. Details: expressed in transfected cells; host or cells: HEK293/hNPY2R (G418 selection). As to the method:
In this example, the following materials were used: 384-well plate; Tropix cAMP-Screen Kit; cAMP ELISA System (Applied Biosystems, cat. #T1505; CS 20000); Forskolin (Calbiochem cat. # 344270); cells: HEK293/hNPY2R; growth medium: Dulbecco's modified eagle medium (D-MEM, Gibco); 10% Fetal bovine serum (FBS, Gibco), heat-inactivated; 1% Penicillin/Streptomycin (Pen 10000 unit/mL: Strep […], Gibco); […] G418 (Geneticin, Gibco cat. # 11811-031); and plating medium: DMEM/F12 w/o phenol red (Gibco); 10% FBS (Gibco, cat. # 10082-147), heat-inactivated; 1% Penicillin/Streptomycin (Gibco, cat. # 15140-122); […] G418 (Geneticin, Gibco, cat. # 11811-031).
On the first day, medium was discarded, and the monolayer cells were washed with 10 mL PBS per flask (T225). After decanting with PBS, 5 mL VERSENE (Gibco, cat #1504006) was used to dislodge the cells (5 min @37 C). The flask was gently tapped and the cell suspension was pooled. Each flask was rinsed with 10 mL plating medium and centrifuged at 1000 rpm for 5 min. The suspension was pooled and counted. The suspension was resuspended in plating medium at a density of 2.0×10^5 cells/mL for HEK293/hNPY2R. 50 microliters of cells (HEK293/hNPY2R-10,000 cells/well) were transferred into the 384-well plate using Multi-drop dispenser. The plates were incubated at 37° C. overnight. On the second day, the cells were checked for 75-85% confluence. The media and reagents were allowed to come to room temperature. Before the dilutions were prepared, the stock solution of stimulating compound in dimethyl sulphoxide (DMSO, Sigma, cat #D2650) was allowed to warm up to 32 C for 5-10 min. The dilutions were prepared in DMEM/F12 with 0.5 mM 3-Isobutyl-1-methylxanthine (IBMX, Calbiochem, cat #410957) and 0.5 mg/mL BSA. The final DMSO concentration in the stimulation medium was 1.1% with Forskolin concentration of 5 μM. The cell medium was tapped off with a gentle inversion of the cell plate on a paper towel. 50 μL of stimulation medium was placed per well (each concentration done in four replicates). The plates were incubated at room temperature for 30 min, and the cells were checked under a microscope for toxicity. After 30 minutes of treatment, the stimulation media was discarded and […] of Assay Lysis Buffer (provided in the Tropix kit) was added. The plates were incubated for 45 min @ 37° C. 20 μL of the lysate was transferred from stimulation plates into the pre-coated antibody plates (384-well) from the Tropix kit. 10 μL of AP conjugate and 20 μL of anti-cAMP antibody was added. The plates were incubated at room temperature while shaking for 1 hour. The plates were then washed 5 times with Wash Buffer, 70 μL per well for each wash. The plates were tapped to dry. 30 μL/well of CSPD/Saphire-II RTU substrate/enhancer solution was added and incubated for 45 min @ RT (shake). Signal for 1 sec/well in a Luminometer. (VICTOR-V) was measured.

Sequence of Y4R (P50391 whole entry): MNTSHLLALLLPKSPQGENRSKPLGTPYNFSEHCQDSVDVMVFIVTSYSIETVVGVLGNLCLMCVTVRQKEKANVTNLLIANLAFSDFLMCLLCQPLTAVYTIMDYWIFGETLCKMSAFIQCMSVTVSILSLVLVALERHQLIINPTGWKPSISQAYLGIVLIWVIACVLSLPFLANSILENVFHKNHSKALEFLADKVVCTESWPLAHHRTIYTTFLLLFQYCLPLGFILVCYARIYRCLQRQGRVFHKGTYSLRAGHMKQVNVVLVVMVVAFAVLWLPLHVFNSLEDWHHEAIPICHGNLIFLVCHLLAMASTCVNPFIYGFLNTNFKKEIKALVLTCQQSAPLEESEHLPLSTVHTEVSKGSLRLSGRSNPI

In general, EC50 refers to the concentration needed to bring the measured effect to its halfway point. Read a high EC50 as a less potent agent. Regarding `CCCCCCCCCCCCCCCC(=O)NCCCCCC(=O)NCCCC[C@H](NC(=O)[C@@H](NC(=O)CCOCCOCCOCCOCCOCCOCCOCCOCCOCCOCCOCCOCCOCCOCCOCCOCCOCCOCCOCCOCCOCCOCCOCCOC)[C@@H](C)CC)C(=O)N1CCN(c2ccc3ncn(CC(=O)N[C@@H](CCCNC(=N)N)C(=O)N[C@@H](Cc4c[nH]cn4)C(=O)N[C@@H](Cc4ccc(O)cc4)C(=O)N[C@@H](CC(C)C)C(=O)N[C@@H](CC(N)=O)C(=O)N[C@@H](Cc4c[nH]c5ccccc45)C(=O)N[C@H](C(=O)N[C@H](C(=O)N[C@@H](CCCNC(=N)N)C(=O)N[C@@H](CCC(N)=O)C(=O)N(C)[C@@H](CCCNC(=N)N)C(=O)N[C@@H](Cc4ccc(O)cc4)C(N)=O)[C@@H](C)O)C(C)C)c(=O)c3c2)CC1` [Example 11], the EC50 is 915 nM at Y5R; greater than 5000 nM on Y1R; greater than 5000 nM at Y4R; 0.058 nM at hNPY2R [1]; 0.08 nM on hNPY2R [2].

For the compound `CCCCCCCCCCCCCCCC(=O)NCCOCCNC(=O)CCC(=O)NCCCC[C@H](NC(=O)[C@@H](NC(=O)COCCOCCOCCOCCOCCOC)[C@@H](C)CC)C(=O)N1CCN(c2ccc3ncn(CC(=O)N[C@@H](CCCNC(=N)N)C(=O)N[C@@H](Cc4c[nH]cn4)C(=O)N[C@@H](Cc4ccc(O)cc4)C(=O)N[C@@H](CC(C)C)C(=O)N[C@@H](CC(N)=O)C(=O)N[C@@H](Cc4c[nH]c5ccccc45)C(=O)N[C@H](C(=O)N[C@H](C(=O)N[C@@H](CCCNC(=N)N)C(=O)N[C@@H](CCC(N)=O)C(=O)N(C)[C@@H](CCCNC(=N)N)C(=O)N[C@@H](Cc4ccc(O)cc4)C(N)=O)[C@@H](C)O)C(C)C)c(=O)c3c2)CC1` [Example 12], the EC50 on Y5R is 527 nM; on Y1R, greater than 5000 nM; at Y4R, greater than 5000 nM; on hNPY2R [1], 0.097 nM; on hNPY2R [2], 0.09 nM.

Consider `CCCCCCCCCCCCCCCC(=O)NCCOCCNC(=O)CCC(=O)NCCCC[C@H](NC(=O)[C@@H](NC(=O)CCOCCOCCOCCOCCOCCOCCOCCOCCOCCOCCOCCOC)[C@@H](C)CC)C(=O)N1CCN(c2ccc3ncn(CC(=O)N[C@@H](CCCNC(=N)N)C(=O)N[C@@H](Cc4c[nH]cn4)C(=O)N[C@@H](Cc4ccc(O)cc4)C(=O)N[C@@H](CC(C)C)C(=O)N[C@@H](CC(N)=O)C(=O)N[C@@H](Cc4c[nH]c5ccccc45)C(=O)N[C@H](C(=O)N[C@H](C(=O)N[C@@H](CCCNC(=N)N)C(=O)N[C@@H](CCC(N)=O)C(=O)N(C)[C@@H](CCCNC(=N)N)C(=O)N[C@@H](Cc4ccc(O)cc4)C(N)=O)[C@@H](C)O)C(C)C)c(=O)c3c2)CC1` [Example 13], for which the EC50 is 401 nM at Y5R; greater than 5000 nM at Y1R; greater than 5000 nM at Y4R; 0.055 nM at hNPY2R [1]; 0.15 nM at hNPY2R [2].

As for `CCCCCCCCCCCCCCCC(=O)NCCOCCNC(=O)CCC(=O)NCCCC[C@H](NC(=O)[C@@H](NC(=O)CCOCCOCCOCCOCCOCCOCCOCCOCCOCCOCCOCCOCCOCCOCCOCCOC)[C@@H](C)CC)C(=O)N1CCN(c2ccc3ncn(CC(=O)N[C@@H](CCCNC(=N)N)C(=O)N[C@@H](Cc4c[nH]cn4)C(=O)N[C@@H](Cc4ccc(O)cc4)C(=O)N[C@@H](CC(C)C)C(=O)N[C@@H](CC(N)=O)C(=O)N[C@@H](Cc4c[nH]c5ccccc45)C(=O)N[C@H](C(=O)N[C@H](C(=O)N[C@@H](CCCNC(=N)N)C(=O)N[C@@H](CCC(N)=O)C(=O)N(C)[C@@H](CCCNC(=N)N)C(=O)N[C@@H](Cc4ccc(O)cc4)C(N)=O)[C@@H](C)O)C(C)C)c(=O)c3c2)CC1` [Example 14], the EC50 at Y5R was 370 nM; on Y1R, greater than 5000 nM; on Y4R, greater than 5000 nM; on hNPY2R [1] it was 0.032 nM; on hNPY2R [2], 0.08 nM. The “Y5R FLIPR agonist character (partial agonist mark)” value at Y5R (FLIPR) is recorded as “P.A”.
